In data set [1] the test system is Aβ-GFP SH-SY5Y cells. The experiment in a line: Aβ-GFP fluorescence (Aβ-GFP folding reporter). The data set is classed as cell-based, Human. Particulars: 1–5 μM, normalized with cell number, day 8. The protocol: To induce neuronal differentiation, 2 × 10^4 Aβ-GFP SH-SY5Y cells were seeded on a 96-well plate with retinoic acid (10 µM; Sigma-Aldrich). Cells were pretreated with tested compounds (0.2–5 µM) on day 2 for 8 h and then with doxycycline (5 μg/mL) to induce Aβ-GFP expression. Medium containing retinoic acid compound and doxycycline was refreshed every 2 days for 6 days. Then, cells were stained with Hoechst 33342 (0.1 µg/mL; Sigma-Aldrich) at 37 °C for 30 min. Cell images were recorded at 482/35 nm excitation and 536/40 nm emission wavelengths (ImageXpres Micro Confocal High-Content Imaging System; Molecular Devices, Sunnyvale, CA, USA), and analyzed by MetaXpress (Molecular Devices).

In data set [2] the test system is Aβ-GFP SH-SY5Y cells. The experiment in a line: Neurite outgrowth analysis. The class given is cell-based, Human. To be noted: 5 µM; for Neurite total length: induced untreated 23.9, uninduced 31.2; for Neurite length: untreated 25.3. The protocol: Aβ-GFP SH-SY5Y cells (6 × 10^4 cells) were seeded on a 24-well plate with retinoic acid (10 µM) on day 1. Tested coumarins (5 µM) and doxycycline (5 μg/mL) were added on day 2, as described. On day 8, the cells were washed with phosphate-buffered saline (PBS) twice and fixed in 4% paraformaldehyde at 4 °C for 15 min. Cells were permeabilized with Triton X-100 (0.1%) for 10 min, blocked with bovine serum albumin (3%) for 20 min, and stained with anti-neuronal TUBB3 antibody (1:1000; Covance, Princeton, NJ, USA) at 4 °C overnight. The next day, cells were washed with PBS twice and stained by a secondary donkey anti-rabbit Alexa Fluor® 555 antibody (1:1000; Thermo Fisher Scientific) and 4′,6-diamidino-2-phenylindole (DAPI; 0.1 µg/mL; Sigma-Aldrich) at room temperature for 1 h. Neuronal images from at least 60 individual fields (150–250 neurons per field) per experiment were captured at excitation 531/40 nm and emission 593/40 nm wavelengths using an ImageXpress micro confocal high-content imaging system (Molecular Devices). Neurite total length (μm) and numbers of process (the number of primary neurites originated from the cell body of a neuron) and branch (the number of secondary neurites extended from primary neurites) were analyzed using a MetaXpress neurite outgrowth application module (Molecular Devices). For each sample, around 6000 cells were analyzed in each of three independent experiments.
Lentiviral short hairpin RNA (shRNA) targeting TRKB (TRCN0000002243, TRCN0000002245, and TRCN0000002246) and a negative-scrambled control (TRC2.Void) were obtained from the National RNAi Core Facility, IMB/GRC, Academia Sinica (Taipei, Taiwan). As described, cells were plated on 6- or 24-well plates, with retinoic acid added on day 1. Cells were infected with lentivirus (multiplicity of infection, 3 for each shRNA), with polybrene (8 µg/mL; Sigma-Aldrich) on the next day. Cells were pretreated with tested compounds (5 µM) for 8 h after changing medium, followed by doxycycline on day 3. Cells were collected for further analysis on day 9. The hairpin sequences of targeting shRNA were below: • TRCN0000002243: 5’-[…]ctcgag[…]-3’ • TRCN0000002245: 5’-[…]ctcgagATGTT-[…]-3’ • TRCN0000002246: 5’-[…]ctcgag[…]-3’ • TRC2.Void: 5’-[…]ctcgag[…]-3’

Another data set deals with AKT. The experiment in a line: Western blot, p-AKT. The class given is cell-based, Human. Particulars: 5 µM; induced untreated 81%. On the procedure:
(§1) Cellular proteins were prepared using a lysis buffer containing NaCl (150 mM), ethylene diamine tetraacetic acid (EDTA, 1 mM, pH8.0), Tris-HCl (50 mM, pH8.0), ethylene glycol tetraacetic acid (EGTA, 1 mM, pH8.0), sodium dodecyl sulfate (SDS, 0.1%), sodium deoxycholate (SD, 0.5%), Triton X-100 (1%), and protease (Sigma-Aldrich), and phosphatase (Abcam, Cambridge, MA, USA) inhibitor cocktails. After quantitation by protein assay kit (Bio-Rad, Hercules, CA, USA), 20 µg proteins were separated by SDS-polyacrylamide (10%) gel electrophoresis and transferred to polyvinylidene difluoride (PVDF) membranes (Sigma-Aldrich) using a Mini Trans-Blot cell (Bio-Rad). After blocking, the membrane was probed with anti-TRKB, anti-p-TRKB (Y516), anti-p-TRKB (Y817) (1:500; Cell Signaling, Danvers, MA, USA), anti-ERK, anti-p-ERK (T202/Y204) (1:1000; Cell Signaling), anti-AKT, anti-p-AKT (S473) (1:1000; Cell Signaling), anti-CREB, anti-p-CREB (S133) (1:1000; Millipore, Billerica, MA, USA), anti-BDNF, anti-BCL2 (1:500; Santa Cruz Biotechnology, Santa Cruz, CA, USA), anti-BAX (1:1000; Cell Signaling), anti-β-tubulin (1:500; Sigma-Aldrich), or anti-GAPDH (1:1000, MDBio, Taipei, Taiwan) antibody. The immune complexes were detected using goat anti-mouse or goat anti-rabbit IgG antibody conjugated with horseradish peroxidase (1:5000; GeneTex, Irvine, CA, USA) and chemiluminescent substrate (Millipore).
(Immunoblotting shows a protein as a band on a membrane.)

The test system of another data set is ERK. The experiment in a line: Western blot, p-ERK. Particulars: 5 µM; induced untreated 79%. The class given is cell-based, Human. The protocol: as §1
Another data set relates to CREB. In words: Western blot, p-CREB. The data set is classed as cell-based, Human. Particulars: 5 µM; induced untreated 81%. The protocol:
as §1

The next data set has as its system BDNF. In words: Western blot, BDNF. The data set is classed as cell-based, Human. To be noted: 5 µM; for BDNF 14 kDa protein level relative to uninduced cells (100%): induced untreated 42%; for BDNF 32 kDa protein level relative to uninduced cells (100%): induced untreated 88%. On the procedure: as §1
The next data set concerns BCL2. The experiment in a line: Western blot, BCL2. The class given is cell-based, Human. Particulars: 5 µM; induced untreated 72%. The protocol: as §1
Another data set concerns BAX. The experiment in a line: Western blot, BAX. To be noted: 5 µM; induced untreated 182%. The class given is cell-based, Human. The protocol:
as §1

Another data set is described as follows: in vitro. To be noted: PAMPA. On the procedure:
PAMPA was used to predict the penetration of the tested compounds across the BBB. […] The filter PVDF membrane (pore size 0.45 μm; Millipore) was coated with 4 μL of porcine polar brain lipid (20 mg/mL; Avanti Polar Lipids, Alabaster, AL, USA) in dodecane and the acceptor well filled with 200 μL of 5% DMSO in PBS. The filter plate was carefully placed on the donor plate to form a sandwich plate at room temperature for 18 h. After the permeation time, the filter and donor plates were separated. The concentration of the tested compound in the donor and acceptor wells was measured by an AB Sciex QTrap 5500 mass spectrometer (Applied Biosystems) linked to a 1200 HPLC system (Agilent Technologies, Palo Alto, CA, USA). The concentrations of the QC compounds were determined by a Tecan Infinite M200 Pro microplate reader (Switzerland). The effective permeability coefficient (Pe) was calculated as described. Each compound was tested in triplicate.
In general terms: The PAMPA barrier holds no transporters, so it reflects passive diffusion.

The mark [3] stands for this setting: TRKB shRNA-infected cells, untreated 2.9.
[4] abbreviates: induced untreated 1.8, uninduced 2.8.
Where [5] appears, read: induced untreated 3.3, uninduced 4.4.
[6] abbreviates: scrambled shRNA-infected cells, untreated 2.4.
Setting [7] is: scrambled shRNA-infected cells, untreated 3.5.
Setting [8] is: BBB Permeability Classification.
Setting [9] is: Measured Pe (effective permeability).

From publication PMC8619673 (Cells, 2021) come the findings set out here.

Molecules are shown by their SMILES. Where only a bound is given, the exact number is not on record here.

Regarding `CCOC(=O)c1cc2c(O)cccc2oc1=O` [ZN014, ethyl 5-hydroxy-2-oxo-2H-chromene-3-carboxylate], the “GFP fluorescence intensity relative to untreated cells (100%)” value in the data set on Aβ-GFP SH-SY5Y cells [1] is on record as 111–119%. Besides, the Neurite process number is listed as 3.5 with Aβ-GFP SH-SY5Y cells [2] (setting [3]), 4.2–4.3 in the data set on Aβ-GFP SH-SY5Y cells [2] (setting [5]) and 3.9–4.0 with Aβ-GFP SH-SY5Y cells [2] (setting [7]). In addition, the Neurite branch number is 2.4–2.5 in the data set on Aβ-GFP SH-SY5Y cells [2] (setting [4]) and 3.0–3.1 in the data set with Aβ-GFP SH-SY5Y cells [2] (setting [6]). Besides, the Neurite total length in the data set on Aβ-GFP SH-SY5Y cells [2] is recorded as 29.1–29.3 μm. Further, in the data set on Aβ-GFP SH-SY5Y cells [2] (scrambled shRNA-infected cells), the Neurite length is recorded as 30.7–30.9 µm. In the data set with AKT, the “p-AKT (S473) protein level relative to uninduced cells (100%)” value is 91–110%. Moreover, the “p-ERK (T202/Y204) protein level relative to uninduced cells (100%)” value in the data set with ERK is given as 95–107%. The “p-CREB (S133) protein level relative to uninduced cells (100%)” value with CREB is reported as 98–101%. Also, the “BDNF 14 kDa protein level relative to uninduced cells (100%)” value in the data set on BDNF is 124–140%. For the same compound, the “BDNF 32 kDa protein level relative to uninduced cells (100%)” value with BDNF is listed as 113–119%. In addition, the “BCL2 protein level relative to uninduced cells (100%)” value in the data set on BCL2 is recorded as 104–116%. Moreover, the “BAX protein level relative to uninduced cells (100%)” value with BAX is given as 126%. In addition, the results for the Papp at 18 h, 1 μM in the data set “in vitro” (setting [8]) and in “in vitro” (setting [9]) were below 2 ×10⁻⁶ cm/s and 0.56 ± 0.01 ×10⁻⁶ cm/s, respectively.
`O=C(/C=C/c1ccccc1O)c1c(O)c2ccccc2oc1=O` [ZN015, (E)-4-hydroxy-3-(3-(2-hydroxyphenyl)acryloyl)-2H-chromen-2-one]: the “GFP fluorescence intensity relative to untreated cells (100%)” value in the data set with Aβ-GFP SH-SY5Y cells [1] was 113–125%. The Neurite process number is recorded as 3.5 in the data set on Aβ-GFP SH-SY5Y cells [2] (setting [3]), 4.2–4.3 with Aβ-GFP SH-SY5Y cells [2] (setting [5]) and 3.9–4.0 with Aβ-GFP SH-SY5Y cells [2] (setting [7]). The results for the Neurite branch number with Aβ-GFP SH-SY5Y cells [2] (setting [4]) and with Aβ-GFP SH-SY5Y cells [2] (setting [6]) were 2.4–2.5 and 3.0–3.1, respectively. Moreover, the Neurite total length with Aβ-GFP SH-SY5Y cells [2] was 29.1–29.3 μm. Also, the Neurite length in the data set on Aβ-GFP SH-SY5Y cells [2] (scrambled shRNA-infected cells) is on record as 30.7–30.9 µm. Besides, in the data set with AKT, the “p-AKT (S473) protein level relative to uninduced cells (100%)” value was 91–110%. Besides, the “p-ERK (T202/Y204) protein level relative to uninduced cells (100%)” value in the data set with ERK is 95–107%. Also, the “p-CREB (S133) protein level relative to uninduced cells (100%)” value in the data set on CREB is on record as 98–101%. Also, in the data set with BDNF, the “BDNF 14 kDa protein level relative to uninduced cells (100%)” value is given as 124–140%. The “BDNF 32 kDa protein level relative to uninduced cells (100%)” value in the data set on BDNF was 113–119%. Moreover, the “BCL2 protein level relative to uninduced cells (100%)” value in the data set on BCL2 is on record as 104–116%. The “BAX protein level relative to uninduced cells (100%)” value with BAX is 126%. In addition, the figures for the apparent permeability coefficient (Papp) at 18 h, 1 μM in “in vitro” (setting [8]) and in the data set “in vitro” (setting [9]) were above 4 ×10⁻⁶ cm/s and 5.16 ± 0.11 ×10⁻⁶ cm/s, respectively.
